EC50 data for 19 molecules are collected here from US12258329B2 (Merck Sharp & Dohme LLC, priority 2018, dated 2025).

One test deals with infected PBMCs (VSV-G pseudotyped HIV virus VSV-G/pNLG1-P2A-ΔEnv). Briefly: cells. The format is cell-based, human. As to conditions: Homo sapiens, PBMC, read-out: TACK EC50.
The EC50 is the concentration at which the effect is half-maximal. As for `Cc1nc(C)c(Cn2cnc(C(C)(F)F)c(Oc3cc(C#N)cc(C(F)F)c3)c2=O)c(=O)[nH]1` [Example 23, 3-((4-(1,1-difluoroethyl)-1-((2,4-dimethyl-6-oxo-1,6-dihydropyrimidin-5-yl)methyl)-6-oxo-1,6-dihydropyrimidin-5-yl)oxy)-5-(difluoromethyl)benzonitrile], the EC50 turned out to be 429 nM.
In the case of `Cc1nc(C)c(Cn2cnc(C(F)(F)C(F)F)c(Oc3cc(C(F)F)cc(C#N)c3C)c2=O)c(=O)[nH]1` [Example 66, 5-(difluoromethyl)-3-((1-((2,4-dimethyl-6-oxo-1,6-dihydropyrimidin-5-yl)methyl)-6-oxo-4-(1,1,2,2-tetrafluoroethyl)-1,6-dihydropyrimidin-5-yl)oxy)-2-methylbenzonitrile], the EC50 amounted to 262 nM.
For the molecule `Cc1c(C#N)cc(C(F)F)cc1Oc1c(C(F)(F)C(F)F)ncn(Cc2cnc(-c3cnn(C)c3)[nH]c2=O)c1=O` [Example 47, 5-(difluoromethyl)-2-methyl-3-((1-((2-(1-methyl-1H-pyrazol-4-yl)-6-oxo-1,6-dihydropyrimidin-5-yl)methyl)-6-oxo-4-(1,1,2,2-tetrafluoroethyl)-1,6-dihydropyrimidin-5-yl)oxy)benzonitrile], the EC50 came to 394 nM.
With `Cc1nc(C)c(Cn2cnc(C(F)(F)C(F)F)c(Oc3c(Cl)cc(C#N)cc3Cl)c2=O)c(=O)[nH]1` [Example 97, 3,5-dichloro-4-((1-((2,4-dimethyl-6-oxo-1,6-dihydropyrimidin-5-yl)methyl)-6-oxo-4-(1,1,2,2-tetrafluoroethyl)-1,6-dihydropyrimidin-5-yl)oxy)benzonitrile], the EC50 amounted to 182 nM.
On the same count and under the same terms, with `Cc1nc(C)c(Cn2cnc(C(F)(F)C(F)F)c(Oc3c(C)cc(C#N)cc3C)c2=O)c(=O)[nH]1` [Example 75, 4-((1-((2,4-dimethyl-6-oxo-1,6-dihydropyrimidin-5-yl)methyl)-6-oxo-4-(1,1,2,2-tetrafluoroethyl)-1,6-dihydropyrimidin-5-yl)oxy)-3,5-dimethylbenzonitrile] the figure was 209 nM; with `Cc1nc(C)c(Cn2cnc(C(F)(F)C(F)(F)F)c(Oc3c(C)cc(C#N)cc3C)c2=O)c(=O)[nH]1` [Example 78, 4-((1-((2,4-dimethyl-6-oxo-1,6-dihydropyrimidin-5-yl)methyl)-6-oxo-4-(perfluoroethyl)-1,6-dihydropyrimidin-5-yl)oxy)-3,5-dimethylbenzonitrile], 156 nM; with `Cc1nc(C(C)O)[nH]c(=O)c1Cn1cnc(C(F)(F)C(F)F)c(Oc2cc(Cl)cc(C#N)c2F)c1=O` (single isomer, unassigned) [Example 44], 333 nM.
Regarding `Cc1nc(COc2ncccn2)[nH]c(=O)c1Cn1cnc(C(C)(F)F)c(Oc2cc(Cl)cc(C#N)c2F)c1=O` [Example 24, 5-chloro-3-((4-(1,1-difluoroethyl)-1-((4-methyl-6-oxo-2-((pyrimidin-2-yloxy)methyl)-1,6-dihydropyrimidin-5-yl)methyl)-6-oxo-1,6-dihydropyrimidin-5-yl)oxy)-2-fluorobenzonitrile], the EC50 worked out at 339 nM.
For `Cc1nc(C)c(Cn2cnc(C(C)(F)F)c(Oc3cc(Cl)cc(C#N)c3F)c2=O)c(=O)[nH]1` [Example 22, 5-Chloro-3-((4-(1,1-difluoroethyl)-1-((2,4-dimethyl-6-oxo-1,6-dihydropyrimidin-5-yl)methyl)-6-oxo-1,6-dihydropyrimidin-5-yl)oxy)-2-fluorobenzonitrile], the EC50 stood at 181 nM.
With `Cc1nc(C)c(Cn2cnc(C(F)(F)C(F)(F)F)c(Oc3cc(Cl)cc(C#N)c3F)c2=O)c(=O)[nH]1` [Example 87, 5-chloro-3-((1-((2,4-dimethyl-6-oxo-1,6-dihydropyrimidin-5-yl)methyl)-6-oxo-4-(perfluoroethyl)-1,6-dihydropyrimidin-5-yl)oxy)-2-fluorobenzonitrile], the EC50 was 218 nM.
Same read-out and setting: the result for `Cc1nc(C)c(Cn2cnc(C(C)(F)F)c(Oc3cc(Cl)cc(C#N)c3Cl)c2=O)c(=O)[nH]1` [Example 3, 2,5-dichloro-3-((4-(1,1-difluoroethyl)-1-((2,4-dimethyl-6-oxo-1,6-dihydropyrimidin-5-yl)methyl)-6-oxo-1,6-dihydropyrimidin-5-yl)oxy)benzonitrile] reads 417 nM; that for `Cc1nc(C)c(Cn2cnc(C(F)(F)C(F)(F)F)c(Oc3cc(Br)cc(C#N)c3Cl)c2=O)c(=O)[nH]1` [Example 82, 5-bromo-2-chloro-3-((1-((2,4-dimethyl-6-oxo-1,6-dihydro-pyrimidin-5-yl)methyl)-6-oxo-4-(perfluoroethyl)-1,6-dihydro-pyrimidin-5-yl)oxy)benzonitrile], 531 nM.
`Cc1nc(C)c(Cn2cnc(C(F)(F)C(F)F)c(Oc3cc(C#N)cc(C(F)F)c3)c2=O)c(=O)[nH]1` [Example 69, 3-(difluoromethyl)-5-((1-((2,4-dimethyl-6-oxo-1,6-dihydropyrimidin-5-yl)methyl)-6-oxo-4-(1,1,2,2-tetra-fluoroethyl)-1,6-dihydropyrimidin-5-yl)oxy)benzonitrile]: the EC50 turned out to be 340 nM.
On the same count and under the same terms, with `Cc1nc(N)c(Cn2cnc(C(F)(F)C(F)(F)F)c(Oc3cc(C(F)F)cc(C#N)c3C)c2=O)c(=O)[nH]1` [Example 37, 3-((1-((4-amino-2-methyl-6-oxo-1,6-dihydropyrimidin-5-yl)methyl)-6-oxo-4-(perfluoroethyl)-1,6-dihydropyrimidin-5-yl)oxy)-5-(difluoromethyl)-2-methylbenzonitrile] the figure was 114 nM; with `Cc1cc(C#N)c(C)c(Oc2c(Br)ncn(Cc3c(C)nc(C)[nH]c3=O)c2=O)c1` [Example 26, 3-((4-bromo-1-((2,4-dimethyl-6-oxo-1,6-dihydropyrimidin-5-yl)methyl)-6-oxo-1,6-dihydropyrimidin-5-yl)oxy)-2,5-dimethylbenzonitrile], 413 nM.
Consider `Cc1nc(CF)c(Cn2cnc(C(F)(F)C(F)(F)F)c(Oc3cc(C(F)F)cc(C#N)c3C)c2=O)c(=O)[nH]1` [Example 64, 5-(difluoromethyl)-3-((1-((4-(fluoromethyl)-2-methyl-6-oxo-1,6-dihydropyrimidin-5-yl)methyl)-6-oxo-4-(perfluoroethyl)-1,6-dihydropyrimidin-5-yl)oxy)-2-methylbenzonitrile], for which the EC50 worked out at 162 nM.
Turning to `Cc1nc(C)c(Cn2cnc(C(C)F)c(Oc3cc(C(F)F)cc(C#N)c3F)c2=O)c(=O)[nH]1` (single isomer, unassigned) [Example 32, (S) or (R)-5-(difluoromethyl)-3-((1-((2,4-dimethyl-6-oxo-1,6-dihydropyrimidin-5-yl)methyl)-4-(1-fluoroethyl)-6-oxo-1,6-dihydropyrimidin-5-yl)oxy)-2-fluorobenzonitrile], the EC50 came out at 171 nM.

The same test, now with this note: read-out: TACK EC50.
`Cc1nc(C)c(Cn2cnc(C(C)F)c(Oc3cc(C(F)F)cc(C#N)c3F)c2=O)c(=O)[nH]1` (single isomer, unassigned) [Example 33, (R) or (S)-5-(difluoromethyl)-3-((1-((2,4-dimethyl-6-oxo-1,6-dihydropyrimidin-5-yl)methyl)-4-(1-fluoroethyl)-6-oxo-1,6-dihydropyrimidin-5-yl)oxy)-2-fluorobenzonitrile]: the EC50 came out at 208 nM.
As for `COc1c(C#N)cc(C(F)F)cc1Oc1c(C(C)F)ncn(Cc2c(C)nc(C)[nH]c2=O)c1=O` (single isomer, unassigned) [Example 35], the half-maximal effective concentration (EC50) came out at 351 nM.
